Data: US20220313715A1, “PHARMACEUTICAL COMPOSITION, FOR PREVENTING OR TREATING HEPATIC FIBROSIS, COMPRISING 8-OHDG” (GIL MEDICAL CENTER, priority 2016, published 2022)

Assays:
TGF-β = assay: qPCR mRNA level of TGF-β in liver tissue of liver fibrosis animal model; type: in vivo, Sprague-Dawley rats; conditions: BDL rats, 60 mg/kg/day for 3 weeks vs Experimental Group 1, GAPDH internal control, FIG. 2a
Source text: (§1) 250 g to 300 g male Sprague-Dawley rats were subject to bile duct ligation (BDL) and atresia of bile duct to prepare liver fibrosis animal models. Six of the animal models were laparotomized, and the proximal and distal bile ducts were ligated and then cut in the middle to separate the bile duct. The animal models were then sutured and allowed to recover to be used for Experimental Group 1. Six animal models treated in the same manner as experimental group 1 were sutured and administered with 8-OHdG in the amount of 60 mg/kg/day for 3 weeks to be used for Experimental Group 2. The animal models of each of the control and experimental groups were sutured and raised for 3 weeks, followed by taking blood and liver tissues therefrom to be used for subsequent experimental procedures. […]

TIMP-1 = assay: qPCR mRNA level of TIMP-1 in liver tissue of liver fibrosis animal model; type: in vivo, Sprague-Dawley rats; conditions: BDL rats, 60 mg/kg/day for 3 weeks vs Experimental Group 1, FIG. 2b
Source text: as §1

α-SMA [1] = assay: Western blot of α-SMA protein in liver tissue of liver fibrosis animal model; type: in vivo, Sprague-Dawley rats; conditions: BDL rats, 60 mg/kg/day for 3 weeks vs Experimental Group 1, GAPDH internal control, FIG. 3b
Source text: 250 g to 300 g male Sprague-Dawley rats were subject to bile duct ligation (BDL) and atresia of bile duct to prepare liver fibrosis animal models. Six of the animal models were laparotomized, and the proximal and distal bile ducts were ligated and then cut in the middle to separate the bile duct. The animal models were then sutured and allowed to recover to be used for Experimental Group 1. Six animal models treated in the same manner as experimental group 1 were sutured and administered with 8-OHdG in the amount of 60 mg/kg/day for 3 weeks to be used for Experimental Group 2. The animal models of each of the control and experimental groups were sutured and raised for 3 weeks, followed by taking blood and liver tissues therefrom to be used for subsequent experimental procedures. […] GAPDH protein was used as an internal control.

hydroxyproline = assay: Hydroxyproline level in liver tissue of bile duct ligation liver fibrosis animal model; type: in vivo, Sprague-Dawley rats; conditions: BDL rats, 8-OHdG 60 mg/kg/day for 3 weeks (Experimental Group 2) vs BDL only (Experimental Group 1); absorbance at 560 nm; FIG. 1
Source text: 250 g to 300 g male Sprague-Dawley rats were subject to bile duct ligation (BDL) and atresia of bile duct to prepare liver fibrosis animal models. […] Six of the animal models were laparotomized, and the proximal and distal bile ducts were ligated and then cut in the middle to separate the bile duct. The animal models were then sutured and allowed to recover to be used for Experimental Group 1. Six animal models treated in the same manner as experimental group 1 were sutured and administered with 8-OHdG in the amount of 60 mg/kg/day for 3 weeks to be used for Experimental Group 2. The animal models of each of the control and experimental groups were sutured and raised for 3 weeks, followed by taking blood and liver tissues therefrom to be used for subsequent experimental procedures.

NOX2 [2] = assay: qPCR mRNA level of NOX2 in liver tissue of liver fibrosis animal model; type: in vivo, Sprague-Dawley rats; conditions: BDL rats, 60 mg/kg/day for 3 weeks vs Experimental Group 1, FIG. 2f
Source text: as §1

collagen = assay: Picro Sirius Red staining of collagen in liver tissue of liver fibrosis animal model; type: in vivo, Sprague-Dawley rats; conditions: BDL rats, 60 mg/kg/day for 3 weeks vs Experimental Group 1; Picro Sirius Red stain, ImageJ; FIG. 3a
Source text: (§2) 250 g to 300 g male Sprague-Dawley rats were subject to bile duct ligation (BDL) and atresia of bile duct to prepare liver fibrosis animal models. Six of the animal models were laparotomized, and the proximal and distal bile ducts were ligated and then cut in the middle to separate the bile duct. The animal models were then sutured and allowed to recover to be used for Experimental Group 1. Six animal models treated in the same manner as experimental group 1 were sutured and administered with 8-OHdG in the amount of 60 mg/kg/day for 3 weeks to be used for Experimental Group 2. The animal models of each of the control and experimental groups were sutured and raised for 3 weeks, followed by taking blood and liver tissues therefrom to be used for subsequent experimental procedures.

RAC1 = RAC1 (Homo sapiens, UniProt P63000); conditions: binds to RAC1-GTP through competition with GTP; leads to inhibition of activity of NOX complex; cited from earlier work
NOX1 [3] = assay: Immunofluorescent staining of NOX1 in liver tissue of liver fibrosis animal model; type: in vivo, Sprague-Dawley rats; conditions: BDL rats, 60 mg/kg/day for 3 weeks vs Experimental Group 1, FIG. 3c
Source text: as §2

NOX1 [4] = assay: qPCR mRNA level of NOX1 in liver tissue of liver fibrosis animal model; type: in vivo, Sprague-Dawley rats; conditions: BDL rats, 60 mg/kg/day for 3 weeks vs Experimental Group 1, FIG. 2e
Source text: as §1

NOX2 [5] = assay: Immunofluorescent staining of NOX2 in liver tissue of liver fibrosis animal model; type: in vivo, Sprague-Dawley rats; conditions: BDL rats, 60 mg/kg/day for 3 weeks vs Experimental Group 1, FIG. 3d
Source text: as §2

α-SMA [6] = assay: Immunofluorescent staining of α-SMA (hepatic stellate cell activity index) in liver tissue of liver fibrosis animal model; type: in vivo, Sprague-Dawley rats; conditions: BDL rats, 60 mg/kg/day for 3 weeks vs Experimental Group 1; immunofluorescent co-staining with NOX1 (FIG. 3c) or NOX2 (FIG. 3d)
Source text: as §2

Collagen Iα1 = assay: qPCR mRNA level of collagen in liver tissue of liver fibrosis animal model; type: in vivo, Sprague-Dawley rats; conditions: BDL rats, 60 mg/kg/day for 3 weeks vs Experimental Group 1, FIG. 2c
Source text: as §1

α-SMA [7] = assay: qPCR mRNA level of α-SMA in liver tissue of liver fibrosis animal model; type: in vivo, Sprague-Dawley rats; conditions: BDL rats, 60 mg/kg/day for 3 weeks vs Experimental Group 1, FIG. 2d
Source text: as §1

Nc1nc2c(nc(O)n2[C@H]2C[C@H](O)[C@@H](CO)O2)c(=O)[nH]1 [8-OHdG, 8-hydroxydeoxyguanosine]
mRNA level of TGF-β in the liver tissue (TGF-β): reduced | mRNA level of TIMP-1 in the liver tissue (TIMP-1): reduced | protein level of α-SMA in the liver tissue (α-SMA [1]): reduced | level of hydroxyproline in the liver tissue (hydroxyproline): reduced | mRNA level of NOX2 in the liver tissue (NOX2 [2]): reduced | protein level of collagen in the liver tissue (collagen): reduced | RAC1 activation (RAC1): inhibits | protein level of NOX1 in the liver tissue (NOX1 [3]): reduced | mRNA level of NOX1 in the liver tissue (NOX1 [4]): reduced | protein level of NOX2 in the liver tissue (NOX2 [5]): reduced | protein level of α-SMA used as a hepatic stellate cell activity index (α-SMA [6]): reduced | mRNA level of collagen in the liver tissue (Collagen Iα1): reduced | mRNA level of α-SMA in the liver tissue (α-SMA [7]): reduced
